{"source": "paper PMC8792998", "about": "(Journal of medicinal chemistry, 2021)", "key": {"C. parvum [1]": {"system": "C. parvum", "assay": "C. parvum-infected HCT-8 cell assay", "type": "cell-based, Cryptosporidium parvum", "conditions": "for fold loss of potency: Cp HCT-8 EC50, Table 1 linker SAR, comparator not given; for change of potency, in words: Cp HCT-8 assay, Table 1 linker SAR"}, "[2]": {"system": "human Ether-a-go-go-Related Gene (hERG)", "conditions": "read-out: hERG IC50; reported value; cited from earlier work"}, "hERG [3]": {"biological_target": "T1, hERG (Homo sapiens, UniProt Q12809)", "T1 sequence (Q12809 whole entry)": "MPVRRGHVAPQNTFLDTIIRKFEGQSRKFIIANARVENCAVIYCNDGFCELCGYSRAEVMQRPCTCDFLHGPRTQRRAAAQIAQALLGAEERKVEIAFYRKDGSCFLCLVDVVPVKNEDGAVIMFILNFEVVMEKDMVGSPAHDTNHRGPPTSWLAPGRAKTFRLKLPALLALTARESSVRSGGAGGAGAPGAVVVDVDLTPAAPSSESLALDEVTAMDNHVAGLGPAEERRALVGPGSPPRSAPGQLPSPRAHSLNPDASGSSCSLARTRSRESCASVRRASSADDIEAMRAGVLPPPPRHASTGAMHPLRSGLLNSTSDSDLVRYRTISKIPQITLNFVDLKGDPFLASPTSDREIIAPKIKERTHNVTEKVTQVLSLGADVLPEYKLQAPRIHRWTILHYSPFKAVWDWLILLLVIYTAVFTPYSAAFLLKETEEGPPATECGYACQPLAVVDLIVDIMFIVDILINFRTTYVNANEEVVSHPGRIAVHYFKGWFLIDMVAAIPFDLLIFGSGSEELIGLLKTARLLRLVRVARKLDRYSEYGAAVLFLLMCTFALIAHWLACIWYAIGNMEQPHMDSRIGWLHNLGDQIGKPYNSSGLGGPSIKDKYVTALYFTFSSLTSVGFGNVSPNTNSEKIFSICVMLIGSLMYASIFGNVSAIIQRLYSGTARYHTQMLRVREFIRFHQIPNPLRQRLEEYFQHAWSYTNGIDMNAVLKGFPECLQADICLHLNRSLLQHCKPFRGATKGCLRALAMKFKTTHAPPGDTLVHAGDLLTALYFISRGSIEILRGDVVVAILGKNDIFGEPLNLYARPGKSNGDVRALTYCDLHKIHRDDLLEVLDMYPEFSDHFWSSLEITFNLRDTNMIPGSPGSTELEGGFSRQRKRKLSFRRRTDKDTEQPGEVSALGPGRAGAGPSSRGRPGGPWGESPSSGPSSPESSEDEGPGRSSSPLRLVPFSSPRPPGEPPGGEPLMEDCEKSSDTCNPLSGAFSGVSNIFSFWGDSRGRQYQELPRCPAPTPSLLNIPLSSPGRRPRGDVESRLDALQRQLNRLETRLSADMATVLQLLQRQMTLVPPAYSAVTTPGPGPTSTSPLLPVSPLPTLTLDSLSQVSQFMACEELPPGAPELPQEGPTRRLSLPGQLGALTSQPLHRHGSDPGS", "assay": "hERG-CHO automated patch clamp electrophysiology", "type": "cell-based"}, "hERG [4]": {"biological_target": "T1, hERG", "assay": "hERG [3H]-dofetilide competitive binding assay", "conditions": "human, probe [3H]-dofetilide"}, "C. parvum [5]": {"system": "C. parvum", "conditions": "previous work, cited from earlier work"}, "C. parvum [6]": {"system": "C. parvum", "assay": "C. parvum time-kill curve", "type": "cell-based, Cryptosporidium parvum", "conditions": "for effect on parasite numbers in time-kill assay: compound added at multiples of EC90 24 hours after infection"}, "C. parvum [7]": {"system": "C. parvum", "assay": "NSG mouse model of C. parvum infection", "conditions": "50 mg/kg twice daily by oral gavage, days 7-10; fecal qPCR; n=4"}, "[8]": {"system": "CYP1A2, CYP2B6, CYP2C8, CYP2D6, CYP3A4", "assay": "CYP inhibition panel at 10 μM, remaining isoforms", "type": "in vitro ADME", "conditions": "human"}, "HCT-8 cells": {"system": "HCT-8 cells", "assay": "Host cell toxicity, CellTiter AQueous colorimetric assay", "type": "cell-based, human"}, "[9]": {"assay": "Mouse PK study, plasma and jejunum", "type": "in vivo, CD-1 mice", "conditions": "male, CD-1, mouse, iv, 1 mg/kg"}, "[10]": {"biological_target": "human p-glycoprotein (Pgp) multi-drug resistance (MDR) transporter (Homo sapiens, UniProt P08183)", "assay": "MDR1 transporter assay", "type": "in vitro ADME", "conditions": "10 μM, 2 hours"}, "[11]": {"biological_target": "human potassium channel hERG (Homo sapiens, UniProt Q12809)", "sequence (Q12809 whole entry)": "as above", "assay": "hERG [3H]-dofetilide competitive binding assay", "conditions": "10 μM; inhibition of [3H]-dofetilide binding"}}, "data": [{"compound": "2-(3,4-dichlorophenyl)-1-(2-methyl-4-{[1,2,4]triazolo[4,3-b]pyridazin-6-yl}piperazin-1-yl)ethan-1-one [Compound 10c]", "values": [{"measurement": "fold loss of potency", "setting": "C. parvum [1]", "result": "> 50", "unit": "fold"}]}, {"compound": "O=C(Nc1ccc(Cl)cc1)N1CCN(c2ccc3nncn3n2)CC1", "note": "[Compound 1, reference compound]", "values": [{"measurement": "IC50", "setting": "[2]", "result": "~10", "unit": "µM"}, {"measurement": "IC50", "setting": "hERG [3]", "result": "~10", "unit": "µM"}, {"measurement": "hERG IC50 versus Cp EC90(free) ratio", "setting": "hERG [3]; safety margin", "result": "~ 4 fold"}]}, {"compound": "O=C(Nc1ccc(Cl)c(Cl)c1)N1CCN(c2ccc3nncn3n2)CC1", "note": "[Compound 2, 4-([1,2,4]triazolo[4,3-b]pyridazin-6-yl)-N-(3,4-dichlorophenyl)piperazine-1-carboxamide]", "values": [{"measurement": "inhibition at 10 µM", "setting": "hERG [4]", "result": "~50", "unit": "%"}, {"measurement": "fold more potent than MMV665917", "setting": "C. parvum [5]", "result": "about 4 fold"}, {"measurement": "effect on parasite numbers in time-kill assay", "setting": "C. parvum [6]", "result": "parasite numbers declined exponentially"}, {"measurement": "inhibition at 1 µM", "setting": "hERG [3]; human, CHO cells that express hERG", "result": "> 40", "unit": "%"}]}, {"compound": "O=C(Nc1ccc(Cl)c(Cl)c1)N1CCCN(c2ccc3nncn3n2)CC1", "note": "[Compound 10b, N-(3,4-dichlorophenyl)-4-{[1,2,4]triazolo[4,3-b]pyridazin-6-yl}-1,4-diazepane-1-carboxamide]", "values": [{"measurement": "fold loss of potency", "setting": "C. parvum [1]", "result": "> 50", "unit": "fold"}]}, {"compound": "CN(C(=O)N1CCN(c2ccc3nncn3n2)CC1)c1ccc(Cl)c(Cl)c1", "note": "[Compound 11, N-(3,4-dichlorophenyl)-N-methyl-4-{[1,2,4]triazolo[4,3-b]pyridazin-6-yl}piperazine-1-carboxamide]", "values": [{"measurement": "change of potency, in words", "setting": "C. parvum [1]", "result": "dramatic loss of potency"}]}, {"compound": "O=C(Cc1ccc(Cl)c(Cl)c1)N1CCN(c2ccc3nncn3n2)CC1", "note": "[Compound 12a, 2-(3,4-Dichlorophenyl)-1-(4-{[1,2,4]triazolo[4,3-b]pyridazin-6-yl}piperazin-1-yl)ethan-1-one]", "values": [{"measurement": "mice with no parasites detected ten days after completing treatment", "setting": "C. parvum [7]", "result": "3 of 4 and three of the four"}, {"measurement": "inhibition at 10 µM", "setting": "[8]", "result": "≤ 10", "unit": "%"}, {"measurement": "cytotoxicity in HCT-8 cells, in words", "setting": "HCT-8 cells", "result": "non-cytotoxic in HCT-8 cells"}, {"measurement": "clearance", "setting": "[9]; jejunum", "result": 0.7, "unit": "mL/min/kg"}, {"measurement": "clearance at 6 h", "setting": "[9]; plasma", "result": 0.317, "unit": "mL/min/kg"}, {"measurement": "time of exposure to eliminate 99.9% of parasites", "setting": "C. parvum [6]; based on estimated decay rate, at six times the EC90", "result": "≤ 98", "unit": "h"}, {"measurement": "IC50", "setting": "hERG [3]", "result": "~8", "unit": "µM"}, {"measurement": "hERG margin using EC50, not corrected for plasma protein binding", "setting": "hERG [3]; safety margin", "result": "> 40", "unit": "fold"}]}, {"compound": "O=C(c1ccc(Cl)c(Cl)c1)N1CCN(c2ccc3nncn3n2)CC1", "note": "[Compound 12b, 1-(3,4-dichlorobenzoyl)-4-{[1,2,4]triazolo[4,3-b]pyridazin-6-yl}piperazine]", "values": [{"measurement": "fold loss of potency relative to 12a", "setting": "C. parvum [1]; Cp HCT-8 EC50", "result": "> 100", "unit": "fold"}]}, {"compound": "O=C(Cc1ccc(Cl)c(Cl)c1)N1CCCN(c2ccc3nncn3n2)CC1", "note": "[Compound 12c, 2-(3,4-dichlorophenyl)-1-(4-{[1,2,4]triazolo[4,3-b]pyridazin-6-yl}-1,4-diazepan-1-yl)ethan-1-one]", "values": [{"measurement": "fold loss of potency", "setting": "C. parvum [1]", "result": "> 50", "unit": "fold"}]}, {"compound": "CC1CN(c2ccc3nncn3n2)CCN1C(=O)Cc1ccc(Cl)c(Cl)c1", "note": "(stereo not shown) [Compound 12d, 2-(3,4-dichlorophenyl)-1-(2-methyl-4-{[1,2,4]triazolo[4,3-b]pyridazin-6-yl}piperazin-1-yl)ethan-1-one]", "values": [{"measurement": "fold loss of potency", "setting": "C. parvum [1]", "result": "> 50", "unit": "fold"}]}, {"compound": "O=S(=O)(Cc1ccc(Cl)c(Cl)c1)N1CCN(c2ccc3nncn3n2)CC1", "note": "[Compound 13, 1-[(3,4-dichlorophenyl)methanesulfonyl]-4-{[1,2,4]triazolo[4,3-b]pyridazin-6-yl}piperazine]", "values": [{"measurement": "change of potency, in words", "setting": "C. parvum [1]", "result": "dramatic loss of potency"}]}, {"compound": "O=C(Cc1ccc(F)cc1)N1CCN(c2ccc3nncn3n2)CC1", "note": "[Compound 29h, 2-(4-fluorophenyl)-1-(4-{[1,2,4]triazolo[4,3-b]pyridazin-6-yl}piperazin-1-yl)ethan-1-one]", "values": [{"measurement": "fold more potent than H (entry 1, 29a)", "setting": "C. parvum [1]; Cp HCT-8 EC50, Table 2", "result": 18, "unit": "fold"}]}, {"compound": "O=C(Cc1ccc(Cl)cc1)N1CCN(c2ccc3nncn3n2)CC1", "note": "[Compound 29i, 2-(4-chlorophenyl)-1-(4-{[1,2,4]triazolo[4,3-b]pyridazin-6-yl}piperazin-1-yl)ethan-1-one]", "values": [{"measurement": "fold more potent than H (entry 1, 29a)", "setting": "C. parvum [1]; Cp HCT-8 EC50, Table 2", "result": 25, "unit": "fold"}]}, {"compound": "O=C(Cc1cccc(Cl)c1)N1CCN(c2ccc3nncn3n2)CC1", "note": "[Compound 29j, 2-(3-chlorophenyl)-1-(4-{[1,2,4]triazolo[4,3-b]pyridazin-6-yl}piperazin-1-yl)ethan-1-one]", "values": [{"measurement": "fold less potent than chlorine in the 4-position", "setting": "C. parvum [1]; Cp HCT-8 EC50, Table 2", "result": 4, "unit": "fold"}]}, {"compound": "CC(=O)Oc1ccccc1C(=O)Nc1ncc([N+](=O)[O-])s1", "note": "[NTZ, nitazoxanide, reference compound]", "values": [{"measurement": "EC50", "setting": "C. parvum [5]; read-out: EC50, parasite growth in vitro", "result": 3.8, "unit": "µM"}, {"measurement": "host cell cytotoxicity in time-kill assay", "setting": "C. parvum [6]; HCT-8 cultures", "result": "cytotoxic at concentrations above the EC90"}, {"measurement": "effect on parasite numbers in time-kill assay", "setting": "C. parvum [6]", "result": "blocked C. parvum growth without eliminating the parasite from HCT-8 cultures"}]}, {"compound": "N-(3,4-dichlorophenyl)-4-{[1,2,4]triazolo[4,3-b]pyridazin-6-yl}cyclohex-3-ene-1-carboxamide [Compound 18a]", "values": [{"measurement": "MDCK-MDR Efflux Ratio", "setting": "[10]", "result": 6.5}, {"measurement": "change of potency, in words", "setting": "C. parvum [1]", "result": "equipotent to its N-linked counterpart 2"}, {"measurement": "hERG binding, %inh", "setting": "[11]", "result": 56, "unit": "%"}]}]}
